Experimental data from patent US9144538B2, “Cosmetic compositions containing substituted azole and methods for alleviating the signs of photoaged skin” (The Procter & Gamble Company, priority 2013, dated 2015).
Read-outs that look alike come from different tables or passages of the source.

Assays:
CYP3A4 = CYP3A4 (Homo sapiens (Human), UniProt P08684); test: In vitro CYP3A4 inhibition assay (P450-GLO Assay kit)
Source text: The metabolism of retinoic acid and vitamin D in the skin is incompletely understood, but there is evidence for the involvement of CYP26A1, CYP3A4 and CYP2C8 in catalyzing the 4-hydroxylation of all-trans RA to 4-hydroxy-RA. It is believed, without being limited by theory, that CYP3A4 may be particularly important for ATRA metabolism in the skin. This is because CYP3A4 is expressed in skin, involved in RA metabolism, a CYP with one of the broadest substrate specificities of all of the known CYPs and available as a human recombinant protein in a commercial kit. Thus, a commercially available CYP3A4 assay was used as a surrogate to predict RAMBA potential in the skin.
The commercially available P450-GLO™ Assay kit (Promega Corporation, Madison Wis.) was used to screen various compounds for potential CYP activity, specifically CYP3A4A inhibition activity. CYP3A4A is thought to be among the primary CYP isoforms responsible for retinoic acid metabolism in the skin.
A commercially available P450-GLO™ Assay kit (Promega Corporation, Madison Wis.) is used to screen various compounds for CYP3A4A inhibition activity. CYP3A4A is thought to be one of the primary CYP isoforms responsible for retinoic acid metabolism in the skin.

[1] = system: ATRA 4-hydroxylase (CYP) activity of pig liver microsomes; test: In vitro ATRA 4-hydroxylase activity assay to determine CYP inhibition (pig liver microsomes)
Source text: Cytochrome P450 is a large and diverse group of enzymes that catalyze the oxidation of organic substances. […] Applicant evaluated the potential RAMBA activity of several azoles using pig liver microsomes, a rich source of CYP activity, comprising many different CYP 450 isoforms. […] As understanding in this area has progressed, a more specific CYP inhibition assay can be used to provide better predictivity of activity in human skin. Nevertheless, this assay may still be used as a general predictor of overall CYP activity.
All procedures were carried out under minimal light in order to prevent degradation of the retinoid samples.
Microsomal preparation: one lobe of fresh pig liver was obtained at the time of slaughter from a food-processing company and immediately placed in ice cold 15 mM KH2PO4/250 mM sucrose (pH 7.4) and kept on ice during transportation. A 10 g sample of liver was minced and homogenized in 30 mls of homogenization buffer (15 mM KH2PO4/250 mM sucrose) using a Tekmar homoginizer by pulsing 3 times 20 second pulses. […] The remaining pig liver was cut into 10-g pieces and wrapped in aluminum foil and stored at −80° C. The homogenates from the 8 samples were pooled and centrifuged at 13,000×g for 20 minutes at 4° C. to remove crude debris and the supernatant was further centrifuged at 100,000×g for 70 minutes at 4° C. The microsomal pellets were resuspended into 50 mls of 150 mM KH2PO4/1 mM DTT (pH 7.4) and 1 mL aliquots were stored at −80° C.
100-150 μg of pig liver microsomal protein in 150 mM KH2PO4 is incubated at 37° C. in the presence of radiolabeled ATRA and 5 mM NADPH for 90 min. The final ATRA concentration is 1 μM, as a combination of [20-Methyl-^3H]ATRA and unlabeled ATRA. Initially, radiolabeled ATRA may be used to assist in validating the method. Once retention times of retinoid metabolites are identified, unlabeled ATRA is used for screening. Compounds tested as possible competitive substrates are added to the assay 10 min prior to the addition of ATRA. Ethanol, containing 0.1% butylated hydroxytoluene (BHT) as an antioxidant, is used to stop the reactions. For recovery of ATRA the pH of reactions are adjusted to 3.0 before extraction with 0.1N HCl. Retinoids are extracted from the protein aqueous phase with 4 mL hexane, 1 ml 100 μg/ml BHT in water (pH 3). An additional 4 mlL of hexane (pH 3) is used for a second extraction. The organic extractions are pooled, evaporated to dryness using a speed vac, and resuspended in 62.5 μl acetonitrile containing 1 mg/ml BHT. Samples are analyzed by HPLC.
Mobile phases used for gradient elution of retinoids are those of Duell et al., J. Clin. Invest. […] Mobile phase A is acetonitrile:0.02 M ammonium acetate:acetic acid (1:1:0.01) and mobile phase B is acetonitrile:0.2M ammonium acetate:acetic acid (19:1:0.008). At the start of the HPLC run, solvent A is run 100% followed by a linear gradient to solvent B at 3 minutes, a shallow gradient to 81% solvent B at 38 minutes, and 100% solvent B at 40 minutes. […] Effluent from the HPLC column flows directly into a flow-through scintillation spectrometer (β-RAM). Because of the sensitivity limitations of the β-RAM spectrometer, it is not used to quantitate peak areas but rather to confirm ATRA and ATRA 4-hydroxylase activity. Calculated peaks areas (using Millenium software—Waters Corp.) of ATRA and ATRA metabolites are used to quantify relative activity levels.

[2] = read-out: IC50 (uM), CYP3A4 inhibition, P450-GLO Assay kit
[3] = read-out: IC50 (μM), in vitro 4-hydroxylase inhibition assay, pig liver microsomes, 1 μM ATRA, 90 min at 37° C.

CYP3A4, sequence (P08684 whole entry): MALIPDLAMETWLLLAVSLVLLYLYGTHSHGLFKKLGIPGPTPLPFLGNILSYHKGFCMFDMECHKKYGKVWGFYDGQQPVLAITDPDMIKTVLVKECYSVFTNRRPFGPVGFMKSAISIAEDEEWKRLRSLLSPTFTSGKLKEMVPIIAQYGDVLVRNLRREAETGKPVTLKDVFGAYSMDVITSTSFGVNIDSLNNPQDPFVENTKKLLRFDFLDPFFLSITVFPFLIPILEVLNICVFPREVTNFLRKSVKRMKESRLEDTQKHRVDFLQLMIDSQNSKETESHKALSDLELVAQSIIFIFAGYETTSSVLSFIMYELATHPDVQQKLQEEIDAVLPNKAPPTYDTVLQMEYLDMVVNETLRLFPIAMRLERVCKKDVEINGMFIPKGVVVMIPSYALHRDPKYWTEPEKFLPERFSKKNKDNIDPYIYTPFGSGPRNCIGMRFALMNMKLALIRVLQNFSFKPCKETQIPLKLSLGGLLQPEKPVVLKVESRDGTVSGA

Molecule: CC(=O)n1ccnc1 [1-Acetylimidazole]
- IC50 (CYP3A4; [2]): > 10 µM

Molecule: Cn1ccnc1 [1-Methylimidazole]
- IC50 (CYP3A4; human): > 10 µM

Molecule: C=Cn1ccnc1 [1-Vinylimidazole]
- IC50 (CYP3A4; [2]): > 10 µM

Molecule: Cc1nccn1Cc1ccccc1 [1-benzyl-2-methylimidazole]
- IC50 ([1]; pig, 90 min, pH 7.4): 308 µM

Molecule: c1ccc(Cn2ccnc2)cc1 [1-benzylimidazole]
- IC50 [1, 3]: 77.5 µM

Molecule: c1ccc(-n2ccnc2)cc1 [1-phenylimidazole]
- CYP inhibitory activity (in words), 4-hydroxylase assay ([1]; pig liver microsomes): in the same range as climbazole
- IC50 [1, 3]: 52.5 µM
- hit / no hit, inhibition of CYP3A4 (CYP3A4; P450-GLO Assay kit): Hit
- inhibitory activity in the CYP3A4 assay (in words) (CYP3A4; P450-GLO Assay kit): showed inhibitory activity

Molecule: O=C(n1ccnc1)n1ccnc1 [1′-1-Carbonylimidazole]
- IC50 (CYP3A4; [2]): > 10 µM

Molecule: Clc1ccccc1-c1nc2ccccc2[nH]1 [2-(2-Chlorophenyl) benzimidazole]
- IC50 (CYP3A4; [2]): > 10 µM

Molecule: CCCCc1nc(C=O)c(Cl)[nH]1 [2-Butyl-4-chloro-5-formylimidazole]
- IC50 (CYP3A4; human): > 10 µM

Molecule: CCc1nc(C)c[nH]1 [2-Ethyl-4-methylimidazole]
- IC50 (CYP3A4; [2]): > 10 µM

Molecule: CCc1ncc[nH]1 [2-Ethylimidazole]
- IC50 (CYP3A4; human): > 10 µM

Molecule: Cc1ncc[nH]1 [2-Methylimidazole]
- IC50 (CYP3A4; [2]): > 10 µM

Molecule: c1ccc(-c2ncc[nH]2)cc1 [2-phenylimidazole, 2-Phenylimidazole]
- CYP inhibitory activity (in words), 4-hydroxylase assay ([1]; pig liver microsomes): lacked any significant inhibitory activity
- IC50 [1, 3]: > 500 µM
- inhibitory activity in the CYP3A4 assay (in words) (CYP3A4): did not
- hit / no hit, inhibition of CYP3A4 (CYP3A4; P450-GLO Assay kit): no hit (weak/no inhibition (IC50 value >10 μM))
- IC50 (CYP3A4; human): > 10 µM

Molecule: c1ccc(-c2nc[nH]c2-c2ccccc2)cc1 [4,5-diphenylimidazole]
- IC50 ([1]; pig, 90 min, pH 7.4): 100 µM

Molecule: CC(=O)c1ccc(-n2ccnc2)cc1 [4′-(Imidazol-1yl) acetophenome]
- hit / no hit, inhibition of CYP3A4 (CYP3A4; human): Hit

Molecule: Clc1ncnc2[nH]cnc12 [6-Chloropurine]
- IC50 (CYP3A4; human): > 10 µM

Molecule: Nc1nc[nH]n1 [Amitrol]
- IC50 (CYP3A4; human): > 10 µM

Molecule: CCCCNC(=O)n1c(NC(=O)OC)nc2ccccc21 [Benomyl]
- hit / no hit, inhibition of CYP3A4 (CYP3A4; P450-GLO Assay kit): no hit (weak/no inhibition (IC50 value >10 μM))
- IC50 (CYP3A4; [2]): > 10 µM

Molecule: c1ccc2[nH]cnc2c1 [Benzimidazole]
- IC50 (CYP3A4; [2]): > 10 µM

Molecule: CC1=N[C@H](C(=O)O)CCN1 [Ectoine]
- IC50 (CYP3A4; human): > 10 µM

Molecule: c1coc(-c2nc3ccccc3[nH]2)c1 [Fuberidazole]
- hit / no hit, inhibition of CYP3A4 (CYP3A4; human): no hit >10 uM (key: hit: strong inhibition (IC50 value<10 μM); no hit: weak/no inhibition (IC50 value >10 μM))
- IC50 (CYP3A4; [2]): > 10 µM

Molecule: CC(NC(=O)[C@@H](N)CCC(=O)O)c1ncc[nH]1 (stereo partly drawn) [Glutamylamidoethyl]
- IC50 (CYP3A4; human): > 10 µM

Molecule: N=C(N)c1ccc(OCCCCCCOc2ccc(C(=N)N)cc2)cc1 [Hexamidine diisethionate]
- IC50 (CYP3A4; [2]): > 10 µM

Molecule: N[C@@H](Cc1c[nH]cn1)C(=O)O [Histidine]
- IC50 (CYP3A4; human): > 10 µM

Molecule: c1ccc(-c2n[nH]cc2-c2ccnc3ccccc23)nc1 [LY-364947]
- IC50 (CYP3A4; human): > 10 µM

Molecule: Cc1cccc(C)c1N(Cn1cccn1)C(=O)CCl [Metazachlor]
- hit / no hit, inhibition of CYP3A4 (CYP3A4; human): no hit >10 uM (key: hit: strong inhibition (IC50 value<10 μM); no hit: weak/no inhibition (IC50 value >10 μM))
- IC50 (CYP3A4; [2]): > 10 µM

Molecule: Cc1ccc2cc3c(ccc4ccccc43)c3c2c1CC3 [Methylcholanthrene]
- hit / no hit, inhibition of CYP3A4 (CYP3A4; P450-GLO Assay kit): Near Hit
- IC50 (CYP3A4; [2]): > 10 µM

Molecule: CCc1cccc(C)c1N(C(=O)CCl)[C@@H](C)COC [Metolachlor]
- hit / no hit, inhibition of CYP3A4 (CYP3A4; P450-GLO Assay kit): no hit (weak/no inhibition (IC50 value >10 μM))
- IC50 (CYP3A4; [2]): > 10 µM

Molecule: CC(C)(C(=O)c1cccnc1)c1cccnc1 [Metyrapone]
- hit / no hit, inhibition of CYP3A4 (CYP3A4; human): Hit

Molecule: Clc1ccc(COC(Cn2ccnc2)c2ccc(Cl)cc2Cl)c(Cl)c1 (stereo not drawn) [Miconazole]
- hit / no hit, inhibition of CYP3A4 (CYP3A4; human): Hit 5 uM

Molecule: NCCCn1ccnc1 [N-(3-Aminopropyl) imidazole]
- IC50 (CYP3A4; human): > 10 µM

Molecule: O=C(/C=C/C=C/c1ccc2c(c1)OCO2)N1CCCCC1 [Piperine]
- IC50 (CYP3A4; human): ~10 µM
- hit / no hit, inhibition of CYP3A4 (CYP3A4; human): Hit

Molecule: CC(=O)/C=C/C1=C(C)CCCC1(C)C [β-Ionone]
- IC50 (CYP3A4; human): > 10 µM

Molecule: Diltazem
- hit / no hit, inhibition of CYP3A4 (CYP3A4; P450-GLO Assay kit): no hit (weak/no inhibition (IC50 value >10 μM))
- IC50 (CYP3A4; [2]): > 10 µM
